Laboratory results: patent US8597646B2, “Methods and compositons featuring TGF-beta antagonists for the treatment of marfan syndrome and associated disorders” (The Johns Hopkins University, priority 2005, dated 2013)
“Also recorded” adds a separate entry of the source.

Test system: Fbn1C1039G/+ mice
Assay: Steady-state skeletal muscle architecture and fiber cross sectional area in Fbn1C1039G/+ mice
Format: in vivo, mouse
Details: for Steady-state muscle architecture, in words: fibrillin-1 deficient mice, monopotassium salt
Procedure: Wild-type and Fbn1^C1039G/+ mice received intraperitoneal injections of TGFβ-neutralizing antibody (R&D Systems, once every two weeks) starting at 7 weeks of age. The antibody was diluted in PBS (pH 7.4) and administered at a dose of 1 mg/kg or 10 mg/kg body weight. Rabbit IgG (10 mg/kg; Zymed Laboratories Inc.) was administered in a similar fashion as a negative control. Mice were sacrificed after 2 months of treatment and a minimum of 6 mice per genotype were used for histologic and morphometric analyses.
Mice were continued on oral therapy for 6 months and sacrificed. […] Age-matched wild-type and mdx mice (placebo-treated) served as a control group. After 6 months of treatment, forelimb and hindlimb grip strength was assessed using an automated grip strength meter (Columbus Instruments, Columbus, Ohio). The experiments for forelimb and hindlimb grip strength testing were conducted at different days allowing for a minimum recovery period of 10 days. Total peak force (in Newtons) was determined by an electronic strain gauge as previously described and corrected for body weight (Wagner, K. R., et al. (2002) Ann Neurol 52, 832-6). Five measurements within 2 minutes were taken from each animal. […] The degree of fatigue was calculated by comparing the first two pulls to the last two pulls with the decrement between pulls 1+2 and pulls 4+5 providing a measure of fatigue. […]
For morphometric analyses, skeletal muscle was flash frozen in cooled isopentane and mounted in Tragacanth (Sigma Aldrich, USA). […] Muscle fibers were counted in a defined area (9 mm^2) of the tibialis anterior muscle of 10-day-old wild-type (n=3) and Fbn1C1039G/C1039G mice (n=6) and fiber diameter was determined by measuring the shortest fiber axis within cross-sections of the tibialis anterior muscle, counting a total of 850-1500 fibers. The cross sectional area of undamaged and regenerating myofibers of the tibialis anterior muscle from wild-type and Fbn1^C1039G/+ mice was expressed as a distribution of the percentage of the total number of myofibers analyzed (850-1500) (Horsley, V. et al (2003) Cell 113, 483-94). […]

## CCCCc1nc(Cl)c(CO)n1Cc1ccc(-c2ccccc2-c2nnn[nH]2)cc1.[K] [losartan, 2-butyl-4-chloro-1-[p-(o-1H-tetrazol-5-ylphenyl)benzyl]imidazole-5-methanol monopotassium salt]
Listed as Losartan
  Steady-state muscle architecture, in words: rescued; also recorded: normalized
  Steady-state muscle architecture, in words: fully normalized
Steady state, postnatal losartan, untreated 1746±39, wild-type 2741±69
  Mean fiber size (muscle fiber cross sectional area): 2527±58 μm^2
